Results as given in patent US11084800B2 (Achillion Pharmaceuticals, Inc., priority 2017, dated 2021).

These molecules were tested against Human Factor D (Homo sapiens (Human), UniProt P00746) (assay: Human Factor D Assay). Details: Factor D inhibition, assay of Example 10; read-out: IC5 (Stars).
Type: biochemical
How it was run: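 Thioester substrate Z-L-Lys-SBz (100 μM) with Ellman's reagent DTNB (100 μM) reports activity of 80 nM human serum-derived enzyme, kinetically at 405 nm over 30 min. Compound preincubated 5 min, room temperature, pH 7.5 Tris/1 M NaCl; IC50 by nonlinear fit of rates.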

Human Factor D, sequence (P00746 26-253): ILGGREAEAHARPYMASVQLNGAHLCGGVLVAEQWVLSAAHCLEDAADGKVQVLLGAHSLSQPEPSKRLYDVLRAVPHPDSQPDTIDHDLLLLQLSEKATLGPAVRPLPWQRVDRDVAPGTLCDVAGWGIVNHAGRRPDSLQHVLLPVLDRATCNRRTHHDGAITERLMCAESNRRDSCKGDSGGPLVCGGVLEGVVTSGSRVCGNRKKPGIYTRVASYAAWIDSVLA

| SMILES | IC50 |
| --- | --- |
| Cc1ncc(-c2ccc3c(cnn3CC(=O)N3C[C@H](F)C[C@H]3C(=O)Nc3cccc(Br)n3)c2)cn1 [Compound 444, (2S,4R)-N-(6-bromopyridin-2-yl)-4-fluoro-1-(2-(5-(2-methylpyrimidin-5-yl)-1H-indazol-1-yl)acetyl)pyrrolidine-2-carboxamide] | 1 to 10 µM |
| CCc1nn(CC(=O)N2C[C@H](F)C[C@H]2C(=O)Nc2cccc(Br)n2)c2ccc(-c3cnc(C)nc3)cc12 [Compound 445, (2S,4R)-N-(6-bromopyridin-2-yl)-1-(2-(3-ethyl-5-(2-methylpyrimidin-5-yl)-1H-indazol-1-yl)acetyl)-4-fluoropyrrolidine-2-carboxamide] | 1 to 10 µM |
| CC(=O)c1nn(CC(=O)N2C[C@H](F)C[C@H]2C(=O)N(C)c2cccc(Br)n2)c2ccc(-c3cnc(C)nc3)cc12 [Compound 446, (2S,4R)-1-(2-(3-acetyl-5-(2-methylpyrimidin-5-yl)-1H-indazol-1-yl)acetyl)-N-(6-bromopyridin-2-yl)-4-fluoro-N-methylpyrrolidine-2-carboxamide] | > 10 µM |
| CC(=O)c1nn(CC(=O)N2[C@H](C(=O)Nc3cncc(Br)n3)C[C@@]3(Cc4nc(C)no4)C[C@@H]23)c2c(C)cc(-c3cnc(C)nc3)cc12 [Compound 447, (1R,3S,5R)-2-(2-(3-acetyl-7-methyl-5-(2-methylpyrimidin-5-yl)-1H-indazol-1-yl)acetyl)-N-(6-bromopyrazin-2-yl)-5-((3-methyl-1,2,4-oxadiazol-5-yl)methyl)-2-azabicyclo[3.1.0]hexane-3-carboxamide] | < 1 µM |
| CC(=O)c1cn(CC(=O)N2[C@H](C(=O)Nc3nc(OC(F)(F)F)ccc3C)C[C@@]3(C)C[C@@H]23)c2c(C)cc(-c3cnc(C)nc3)cc12 [Compound 448, (1R,3S,5R)-2-(2-(3-acetyl-7-methyl-5-(2-methylpyrimidin-5-yl)-1H-indo1-1-yl)acetyl)-5-methyl-N-(3-methyl-6-(trifluoromethoxy)pyridin-2-yl)-2-azabicyclo[3.1.0]hexane-3-carboxamide] | < 1 µM |
| CC(=O)c1nn(CC(=O)N2[C@H](C(=O)Nc3cccc(Oc4ccccn4)n3)C[C@@]3(C)C[C@@H]23)c2c(C)cc(-c3cnc(C)nc3)cc12 [Compound 449, (1R,3S,5R)-2-(2-(3-acetyl-7-methyl-5-(2-methylpyrimidin-5-yl)-1H-indazol-1-yl)acetyl)-5-methyl-N-(6-(pyridin-2-yloxy)pyridin-2-yl)-2-azabicyclo[3.1.0]hexane-3-carboxamide] | < 1 µM |
| CC(=O)c1nn(CC(=O)N2[C@H](C(=O)Nc3nc(-c4ccccn4)ccc3C)C[C@@]3(C)C[C@@H]23)c2ccc(-c3cnc(C)nc3)cc12 [Compound 450, (1R,3S,5R)-2-(2-(3-acetyl-5-(2-methylpyrimidin-5-yl)-1H-indazol-1-yl)acetyl)-5-methyl-N-(5-methyl-[2,2′-bipyridin]-6-yl)-2-azabicyclo[3.1.0]hexane-3-carboxamide] | 1 to 10 µM |
| CC(=O)c1nn(CC(=O)N2[C@H](C(=O)Nc3cccc(-n4ccccc4=O)n3)C[C@@]3(C)C[C@@H]23)c2c(C)cc(-c3cnc(C)nc3)cc12 [Compound 451, (1R,3S,5R)-2-(2-(3-acetyl-7-methyl-5-(2-methylpyrimidin-5-yl)-1H-indazol-1-yl)acetyl)-5-methyl-N-(2-oxo-2H-[1,2′-bipyridin]-6′-yl)-2-azabicyclo[3.1.0]hexane-3-carboxamide] | < 1 µM |
| CC(=O)c1nn(CC(=O)N2[C@H](C(=O)Nc3nc(Br)ccc3C)C[C@@]3(C)C[C@@H]23)c2ccc(-c3ccncc3)cc12 [Compound 452, (1R,3S,5R)-2-(2-(3-acetyl-5-(pyridin-4-yl)-1H-indazol-1-yl)acetyl)-N-(6-bromo-3-methylpyridin-2-yl)-5-methyl-2-azabicyclo[3.1.0]hexane-3-carboxamide] | < 1 µM |
| CC(=O)c1nn(CC(=O)N2[C@H](C(=O)Nc3nc(Br)ccc3C)C[C@@]3(C)C[C@@H]23)c2ccc(-c3ccc(C)cn3)cc12 [Compound 453, (1R,3S,5R)-2-(2-(3-acetyl-5-(5-methylpyridin-2-yl)-1H-indazol-1-yl)acetyl)-N-(6-bromo-3-methylpyridin-2-yl)-5-methyl-2-azabicyclo[3.1.0]hexane-3-carboxamide] | < 1 µM |
| CC(=O)c1nn(CC(=O)N2[C@H](C(=O)Nc3cc(C)cc(Br)n3)C[C@@]3(C)C[C@@H]23)c2c(C)cc(-c3cnc(C)nc3)cc12 [Compound 456, (1R,3S,5R)-2-(2-(3-acetyl-7-methyl-5-(2-methylpyrimidin-5-yl)-1H-indazol-1-yl)acetyl)-N-(6-bromo-4-methylpyridin-2-yl)-5-methyl-2-azabicyclo[3.1.0]hexane-3-carboxamide] | < 1 µM |
| CC(=O)c1cn(CC(=O)N2[C@H](C(=O)Nc3nc(Br)c(F)cc3C)C[C@@]3(C)C[C@@H]23)c2ccc(-c3cnc(C)nc3)cc12 [Compound 457, (1R,3S,5R)-2-(2-(3-acetyl-5-(2-methylpyrimidin-5-yl)-1H-indol-1-yl)acetyl)-N-(6-bromo-5-fluoro-3-methylpyridin-2-yl)-5 methyl-2-azabicyclo[3.1.0]hexane-3-carboxamide] | < 1 µM |
| CC(=O)c1nn(CC(=O)N2[C@H](C(=O)N[C@@H](CC(C)C)C(=O)O)C[C@@]3(C)C[C@@H]23)c2c(C)cc(-c3cnc(C)nc3)cc12 [Compound 458, ((1R,3S,5R)-2-(2-(3-acetyl-7-methyl-5-(2-methylpyrimidin-5-yl)-1H-indazol-1-yl)acetyl)-5-methyl-2-azabicyclo[3.1.0]hexane-3-carbonyl)-L-leucine] | < 1 µM |
| CC(=O)c1cn(CC(=O)N2[C@H](C(=O)Nc3nc(C(F)(F)F)ccc3C)C[C@@]3(C)C[C@@H]23)c2c(C)cc(-c3cnc(C)nc3)cc12 [Compound 459, (1R,3S,5R)-2-(2-(3-acetyl-7-methyl-5-(2-methylpyrimidin-5-yl)-1H-indol-1-yl)acetyl)-5-methyl-N-(3-methyl-6-(trifluoromethyl)pyridin-2-yl)-2-azabicyclo[3.1.0]hexane-3-carboxamide] | < 1 µM |
| CC(=O)c1nn(CC(=O)N2[C@H](C(=O)Nc3cccn(-c4ccccn4)c3=O)C[C@@]3(C)C[C@@H]23)c2c(C)cc(-c3cnc(C)nc3)cc12 [Compound 460, (1R,3S,5R)-2-{2-[3-Acetyl-7-methyl-5-(2-methylpyrimidin-5-yl)indazol-1-yl]acetyl}-5-methyl-N-{2-oxo-[1,2′-bipyridine]-3-yl}-2-azabicyclo[3.1.0]hexane-3-carboxamide] | < 1 µM |
| CC(=O)c1nn(CC(=O)N2[C@H](C(=O)Nc3cc(Br)ncc3F)C[C@@]3(C)C[C@@H]23)c2cnc(-c3cnc(C)nc3)cc12 [Compound 461, (1R,3S,5R)-2-(2-(3-acetyl-5-(2-methylpyrimidin-5-yl)-1H-pyrazolo[3,4-c]pyridin-1-yl)acetyl)-N-(2-bromo-5-fluoropyridin-4-yl)-5-methyl-2-azabicyclo[3.1.0]hexane-3-carboxamide] | 1 to 10 µM |
| CC(=O)c1nn(CC(=O)N2[C@H](C(=O)N[C@H](Cc3ccccc3)C(=O)O)C[C@@]3(C)C[C@@H]23)c2c(C)cc(-c3cnc(C)nc3)cc12 [Compound 462, ((1R,3S,5R)-2-(2-(3-acetyl-7-methyl-5-(2-methylpyrimidin-5-yl)-1H-indazol-1-yl)acetyl)-5-methyl-2-azabicyclo[3.1.0]hexane-3-carbonyl)-D-phenylalanine] | 1 to 10 µM |
| CC(=O)c1nn(CC(=O)N2[C@H](C(=O)N[C@H](CC(C)C)C(=O)O)C[C@@]3(C)C[C@@H]23)c2c(C)cc(-c3cnc(C)nc3)cc12 [Compound 464, ((1R,3S,5R)-2-(2-(3-acetyl-7-methyl-5-(2-methylpyrimidin-5-yl)-1H-indazol-1-yl)acetyl)-5-methyl-2-azabicyclo[3.1.0]hexane-3-carbonyl)-D-leucine] | 1 to 10 µM |
| Cc1ncc(-c2ccc3c(c2)c(C(=O)C(F)(F)F)cn3CC(=O)N2[C@H](C(=O)Nc3nc(Br)ccc3C)C[C@@]3(C)C[C@@H]23)cn1 [Compound 465, (1R,3S,5R)-N-(6-bromo-3-methylpyridin-2-yl)-5-methyl-2-(2-(5-(2-methylpyrimidin-5-yl)-3-(2,2,2-trifluoroacetyl)-1H-indol-1-yl)acetyl)-2-azabicyclo[3.1.0]hexane-3-carboxamide] | < 1 µM |

Same assay, conditions: Table 8; Factor D 80 nM, substrate Z-L-Lys-SBz; read-out: IC50

| SMILES | IC50 |
| --- | --- |
| CC(=O)c1nn(CC(=O)N2[C@H](C(=O)Nc3nc(Br)ccc3C)C[C@@]3(CNC(=O)COCCOCCNC(=O)COCCOCCNC(=O)CC[C@H](NC(=O)CCCCCCCCCCCCCCCCC(=O)O)C(=O)O)C[C@@H]23)c2cnc(-c3cnc(C)nc3)cc12 [Compound 442, (S)-1-((1R,3S,5R)-2-(2-(3-acetyl-5-(2-methylpyrimidin-5-yl)-1H-pyrazolo[3,4-c]pyridin-1-yl)acetyl)-3-((6-bromo-3-methylpyridin-2-yl)carbamoyl)-2-azabicyclo[3.1.0]hexan-5-yl)-24-carboxy-3,12,21,26-tetraoxo-5,8,14,17-tetraoxa-2,11,20,25-tetraazatritetracontan-43-oic acid] | < 1 µM |
| CCCCCCCCCCCCCCCC(=O)NCCCC[C@H](NC(=O)[C@H](CCC(=O)O)NC(=O)[C@H](Cc1ccc(O)cc1)NC(=O)[C@H](CCC(=O)O)NC(C)=O)C(=O)N[C@@H](CCC(=O)O)C(=O)N[C@@H](Cc1ccc(O)cc1)C(=O)N[C@@H](CCC(=O)O)C(=O)NC[C@@]12C[C@@H](C(=O)Nc3nc(Br)ccc3C)N(C(=O)Cn3nc(C(C)=O)c4cc(-c5cnc(C)nc5)cc(C)c43)[C@@H]1C2 [Compound 443, (4S,7S,10S,13S,16S,19S,22S)-22-acetamido-4-((((1R,3S,5R)-2-(2-(3-acetyl-7-methyl-5-(2-methylpyrimidin-5-yl)-1H-indazol-1-yl)acetyl)-3-((6-bromo-3-methylpyridin-2-yl)carbamoyl)-2-azabicyclo[3.1.0]hexan-5-yl)methyl)carbamoyl)-10,16-bis(2-carboxyethyl)-7,19-bis(4-hydroxybenzyl)-6,9,12,15,18,21-hexaoxo-13-(4-palmitamidobutyl)-5,8,11,14,17,20-hexaazapentacosanedioic acid] | 1 to 10 µM |
